Measured values: US20100216706A1, “Ghrelin Protects Substantia Nigra Dopamine Neurons” (priority 2007, published 2010)
No end group written: not given here. *: point of attachment. Octanoyl = CCCCCCCC(=O)*

Experiments:
[1] = test system: SNpc DA neurons; test: Whole-cell patch clamp, action potential firing of SNpc DA neurons in brain slices; assay type: cell-based, mice and rats
Protocol: Patch clamp recordings from VTA dopamine neurons: Brain slices (300 μm) containing the substantia nigra pars compacta (SNpc), were cut on a vibratome from 2-3 week old male and female mice (n=9) and rats (n=5). Briefly, animals were anesthetized with Nembutal (80 milligram/kilogram body weight) and then decapitated. The brains were rapidly removed and immersed in cold (4° C.) oxygenated bath solution (containing (mM): NaCl 150; KCl 2.5; CaCl2 2; MgCl2 2; Hepes 10; and glucose 10, pH 7.3 with NaOH). After being trimmed to contain only the SNpc, slices were transferred to a recording chamber where they were constantly perfused with bath solution at 2 milliliter/minute. Dopamine neurons in the SNpc were identified by presence of a large Ih current (>100 pA) evoked by hyperpolarizing voltage steps from −50 to −120 mV for 2 seconds. This approach identifies dopaminergic cells with >90% accuracy (Abizaid et al., 2006, J Clin Invest. 116(12):3229-39. Epub 2006 Oct. 19). In brain slices, whole-cell current clamp was used to observe spontaneous action potentials. Slices were maintained at 33° C. and perfused continuously with ASCF (bubbled with 5% CO2 and 95% O2) containing (in mM): NaCl, 124; KCl, 3; CaCl2, 2; MgCl2, 2; NaH2PO4, 1.23; NaHCO3, 26; glucose, 10, pH 7.4 with NaOH. Ghrelin was applied to the recording chamber via bath application. The pipette solution contained (mM): gluconic acid 140; CaCl2, MgCl2 2; EGTA 1; HEPES 10; Mg-ATP; 4, and Na2-GTP; 0.5, pH 7.3 with KOH
To address this question, an experiment using whole-cell patch clamp electrophysiology was performed to investigate whether ghrelin directly activates SNpc DA neurons. DA neurons (n=11) in the SNpc were identified based on their characteristic Ih currents (Johnson et al., 1992, J Neurosci 12: 483-8). Spontaneous action potentials were recorded under current clamp for at least 10 minutes of stable recording. Ghrelin (1-3 μmol) was applied via bath application.

[2] = test system: tyrosine hydroxylase (TH) mRNA; test: TH mRNA expression in the midbrain (real-time PCR); assay type: in vivo; settings: three hours after ghrelin injection (10 nmols), wild-type mice; saline 1.03±0.15
Protocol: Real-time PCR: RNA was extracted from the midbrain of 8 ghrelin-treated mice or 8 saline-treated mice using TRIzol® (Invitrogen, Carlsbad, Calif.) according to the manufacturer's instructions. cDNA was synthesized using the First-Strand cDNA synthesis kit (Amersham Biosciences), using a total of 3 μg of total RNA in 15 μl of total volume. Real-time PCR analysis of TH mRNA (SEQ ID NO. 4: 5′ […] 3′; SEQ ID NO. 5: 5′ […] 3′) was performed using iQ SYBR green supermix (Bio-Rad) and […] of each primer. Primers for 18S were used as controls. Measurements were performed on an iCycler (Bio-Rad).
Tyrosine hydroxylase (TH) is the rate limiting enzyme of dopamine biosynthesis. An experiment was performed to examine whether ghrelin alters TH mRNA expression in the midbrain.

[3] = test system: UCP2-dependent mitochondrial respiration; test: Uncoupled mitochondrial respiration in pooled midbrain of UCP2 wt or ko mice; assay type: in vivo; settings: ghrelin IP 30 nmol, 3 hours
Protocol: Rats were used as the mitochondrial yield after isolation is much higher than the yield from mice. Mitochondrial respiration was also examined in the pooled midbrain of UCP2 ko and wt mice (3 pooled brains), 3 hours after ghrelin injection (IP 30 nmol).
Mitochondria were pooled from the SN-VTA (4 animals=1, total n=4) and isolated by differential centrifugation. Because of the size of the tissue dissected, it was impossible to solely isolate only the SNc, and as such the results are reported as SN-VTA. Briefly, the SN-VTA was rapidly dissected and homogenized in isolation buffer (215 mM Mannitol, 75 mM sucrose, 0.1% fatty acid free BSA, 20 mM Hepes, 1 mM EGTA, pH adjusted to 7.2 with KOH). The homogenate was spun at 1300×g for 3 minutes. The supernatant was removed, and the pellet was resuspended with isolation buffer and spun again at 1300×g for 3 minutes. The 2 sets of supernatant from each sample were topped off with isolation buffer and spun at 13000×g for 10 minutes. The supernatant was discarded, and this step was repeated. After this second spin at 13000×g, the supernatant was discarded, and the pellets were resuspended with isolation buffer without EGTA and spun at 10000×g for 10 minutes. The final mitochondrial pellet was resuspended with 50 μl of isolation buffer without EGTA. Protein concentrations were determined with a BCA protein assay kit (Pierce, Rockford, Ill., USA).
Mitochondrial respirations were assessed using a Clark-type oxygen electrode (Hansatech Instruments, Norfolk, England) at 37° C. with pyruvate and malate (5 mM and 2.5 mM) as oxidative substrates in respiration buffer (215 mM Mannitol, 75 mM sucrose, 0.1% fatty acid free BSA, 20 mM Hepes, 2 mM MgC1, 2.5 mM KH2PO4, pH adjusted to 7.2 with KOH). Following the addition of ADP and oligomycin, UCP-mediated proton conductance was measured as increased fatty acid-induced respiration (Echtay et al., 2002), which was then compared to state 4 respiration induced by oligomycin, an inhibitor of H^+ transporting ATP synthase.
To test whether UCP2 is important in ghrelin-induced midbrain respiration, mitochondria were isolated from the midbrain of pooled UCP2 wt or ko mice treated with ghrelin or saline, and uncoupled respiration was measured.

Q: Which Action potential frequency ([1]; ghrelin 1-3 μmol bath application, control 100%) does the source give for “ghrelin (GSS(Octanoyl)FLSPEHQRVQQRKESKKPPAKLQPR; listed as Homo sapiens) [28 amino acid acyl-peptide esterified with octanoic acid on Ser3; endogenous ligand of GHSR]” here?
A: The Action potential frequency was 131.9%±17.5.

Q: What about the “Identified DA neurons that responded” value ([1]; ghrelin bath application) of the same substance?
A: Its value is 10 of 11.

Q: What about the “Action potential frequency after washout” value ([1]; washout of ghrelin, control 100%) of the same substance?
A: Its value is 101.9%±4.6.

Q: What about the “TH mRNA expression in the midbrain” value [2] of the same substance?
A: The value was 2.86±0.46.

Q: And the “Basal uncoupled respiration after oligomycin, UCP2 ko mice” value ([3]; ko saline 34.2±2.6)?
A: The value was 39.2±0.4.

Q: What about the “Mitochondrial respiration after palmitate, UCP2 ko mice” value ([3]; ko saline 96.0±7.5) of the same substance?
A: The value was 109.7±2.9.

Q: What about the “Basal uncoupled respiration after oligomycin, UCP2 wt mice” value ([3]; wt saline 32.7±1.6) of the same substance?
A: The value was 41.5±1.9.

Q: What about the “Mitochondrial respiration after palmitate, UCP2 wt mice” value ([3]; wt saline 106.3±5.3) of the same substance?
A: The value was 134.5±4.5.

Q: And the “FCCP-driven respiration, UCP2 wt mice” value ([3]; wt saline 352±14.1)?
A: The value was 472±12.7.
